Experimental findings from article PMC4212247 (Neoplasia (New York, N.Y.), 2014) are described below.

This experiment addresses p70 S6 kinase (S6K1) (Homo sapiens, UniProt P23443). The experiment in a line: in vitro kinase assay with recombinant S6K1, peptide substrate and […] ATP. It counts as biochemical.

p70 S6 kinase (S6K1), sequence (P23443 24-525): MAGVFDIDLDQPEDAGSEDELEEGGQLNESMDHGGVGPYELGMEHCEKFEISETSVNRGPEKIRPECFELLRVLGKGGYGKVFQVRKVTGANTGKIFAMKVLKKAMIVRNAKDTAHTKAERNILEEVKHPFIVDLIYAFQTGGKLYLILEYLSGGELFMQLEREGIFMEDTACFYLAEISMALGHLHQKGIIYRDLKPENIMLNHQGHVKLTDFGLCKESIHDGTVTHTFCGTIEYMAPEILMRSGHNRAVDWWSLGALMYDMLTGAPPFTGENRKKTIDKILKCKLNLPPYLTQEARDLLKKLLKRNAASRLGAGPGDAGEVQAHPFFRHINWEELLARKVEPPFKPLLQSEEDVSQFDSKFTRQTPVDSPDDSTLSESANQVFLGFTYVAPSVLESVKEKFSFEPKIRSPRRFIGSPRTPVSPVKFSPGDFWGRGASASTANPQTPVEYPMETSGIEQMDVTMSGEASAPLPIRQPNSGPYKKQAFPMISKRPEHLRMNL

As to `Cc1oncc1C(=O)Nc1ccc(C(F)(F)F)cc1` [leflunomide], the half-inhibitory concentration (IC50) was roughly 55 µM.
In the case of `C/C(O)=C(\C#N)C(=O)Nc1ccc(C(F)(F)F)cc1` [A77 1726], the IC50 was roughly 80 µM.

In general, IC50 refers to the concentration that inhibits the measured activity by half.
